≈ marks a conversion by molar mass, not a printed value. Calls of active or inactive are those of the source. No cut-off for these calls is given here.
Legend:
[1] = Hemolytic activity against sheep RBC at 0.5 mM after 30 mins relative to control; format: ADME, cell-based, Ovis aries, Erythrocyte; conditions: sheep red blood cells (erythrocytes), read-out: Activity
[2] = target: Cell cycle histidine kinase CckA (Caulobacter vibrioides, UniProt Q9X688); assay: Inhibition of recombinant Caulobacter vibrioides cell cycle histidine kinase CckA deltaTM mutant DHp domain (70 to 691 residues) expressed in Escherichia coli in presence of varying levels of ATP measured every 60 secs for 2 hrs by PK/LDH enzyme coupled assay
[3] = target: T1, Histidine protein kinase DivJ (Caulobacter vibrioides (strain ATCC 19089 / CB15) (Caulobactercrescentus)) (UniProt Q03228); assay: Inhibition of recombinant Caulobacter vibrioides N-terminal His6-tagged DHp-catalytic domain DivJ (188 to 585 residues) autophosphorylation expressed in Escherichia coli BL21(DE3) at 500 uM preincubated for 10 mins followed by [gamma-32P]-ATP addition after 15 mins by phosphotransferase dot blot assay relative to control; set-up: scale not given: the % may be the effect or the level left
T1 sequence (whole entry): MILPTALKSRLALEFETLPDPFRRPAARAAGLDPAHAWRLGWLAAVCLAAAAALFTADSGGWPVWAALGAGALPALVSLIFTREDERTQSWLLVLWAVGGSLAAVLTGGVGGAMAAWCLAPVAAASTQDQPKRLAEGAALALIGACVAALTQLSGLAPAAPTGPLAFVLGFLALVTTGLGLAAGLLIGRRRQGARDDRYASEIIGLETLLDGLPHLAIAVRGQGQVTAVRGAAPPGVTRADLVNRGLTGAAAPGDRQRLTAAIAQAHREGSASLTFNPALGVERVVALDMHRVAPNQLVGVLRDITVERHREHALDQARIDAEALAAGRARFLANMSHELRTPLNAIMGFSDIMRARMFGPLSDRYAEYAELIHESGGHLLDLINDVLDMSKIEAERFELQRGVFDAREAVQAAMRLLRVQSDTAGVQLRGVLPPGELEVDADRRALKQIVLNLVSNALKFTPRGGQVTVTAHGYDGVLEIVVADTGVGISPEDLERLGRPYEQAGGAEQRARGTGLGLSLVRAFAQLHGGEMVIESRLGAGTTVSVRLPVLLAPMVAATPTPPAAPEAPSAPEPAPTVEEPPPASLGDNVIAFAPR

[4] = target: T2, Cell cycle histidine kinase CckA (Caulobacter vibrioides) (UniProt Q9X688); assay: Inhibition of recombinant Caulobacter vibrioides cell cycle histidine kinase CckA deltaTM mutant DHp domain (70 to 691 residues) expressed in Escherichia coli at 250 uM in presence of varying levels of ATP measured every 60 secs for 2 hrs by PK/LDH enzyme coupled assay relative to control
T2 sequence (whole entry): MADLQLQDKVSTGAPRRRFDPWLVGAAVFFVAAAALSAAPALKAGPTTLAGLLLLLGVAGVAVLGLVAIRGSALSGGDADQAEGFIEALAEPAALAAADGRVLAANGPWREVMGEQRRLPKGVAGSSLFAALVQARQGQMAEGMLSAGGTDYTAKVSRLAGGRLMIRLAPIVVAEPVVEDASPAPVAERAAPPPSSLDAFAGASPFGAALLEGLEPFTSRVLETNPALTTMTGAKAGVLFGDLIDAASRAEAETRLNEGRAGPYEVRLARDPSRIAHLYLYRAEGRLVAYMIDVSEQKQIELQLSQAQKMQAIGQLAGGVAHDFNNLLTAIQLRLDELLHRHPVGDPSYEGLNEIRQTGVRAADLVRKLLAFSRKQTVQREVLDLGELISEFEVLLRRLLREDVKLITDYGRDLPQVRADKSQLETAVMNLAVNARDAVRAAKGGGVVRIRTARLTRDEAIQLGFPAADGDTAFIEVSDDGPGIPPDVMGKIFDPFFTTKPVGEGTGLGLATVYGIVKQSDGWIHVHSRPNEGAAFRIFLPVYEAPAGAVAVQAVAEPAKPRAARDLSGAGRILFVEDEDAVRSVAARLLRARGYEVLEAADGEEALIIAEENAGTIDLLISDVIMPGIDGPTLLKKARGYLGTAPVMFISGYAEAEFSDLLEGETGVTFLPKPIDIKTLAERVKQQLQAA

Escherichia coli = assay: Antibacterial activity against Escherichia coli DC2 after 24 hrs by broth dilution method; format: functional; conditions: DC2, 24 h
[5] = target: T3, Virulence sensor histidine kinase PhoQ (Salmonella typhimurium (strain LT2 / SGSC1412 / ATCC 700720)) (UniProt P0DM80); assay: Inhibition of recombinant Salmonella typhimurium N-terminal His6-SUMO-tagged DHp-catalytic domain PhoQ (257 to 487 residues) autophosphorylation expressed in Escherichia coli BL21(DE3) at 500 uM preincubated for 10 mins followed by [gamma-32P]-ATP addition after 30 mins by phosphotransferase dot blot assay relative to control; set-up: scale not given: the % may be the effect or the level left; conditions: Salmonella enterica subsp. enterica serovar Typhimurium
T3 sequence (whole entry): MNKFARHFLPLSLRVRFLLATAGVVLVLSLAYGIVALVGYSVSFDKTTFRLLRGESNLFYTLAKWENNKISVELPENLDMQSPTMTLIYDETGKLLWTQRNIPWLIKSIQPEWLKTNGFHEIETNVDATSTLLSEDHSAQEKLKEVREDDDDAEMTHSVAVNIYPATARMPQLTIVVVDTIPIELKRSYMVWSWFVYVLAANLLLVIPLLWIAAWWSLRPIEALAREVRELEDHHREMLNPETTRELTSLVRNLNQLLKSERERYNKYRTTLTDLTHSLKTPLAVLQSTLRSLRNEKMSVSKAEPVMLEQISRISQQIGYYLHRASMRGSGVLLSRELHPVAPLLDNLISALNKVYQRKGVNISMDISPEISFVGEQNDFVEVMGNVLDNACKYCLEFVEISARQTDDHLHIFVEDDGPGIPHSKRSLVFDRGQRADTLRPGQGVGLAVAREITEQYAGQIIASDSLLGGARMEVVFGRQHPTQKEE

Caulobacter vibrioides = assay: Antibacterial activity against Caulobacter crescentus NA1000 after 24 hrs by broth dilution method; format: functional; conditions: NA1000, 24 h
[6] = target: T2, Cell cycle histidine kinase CckA (Caulobacter vibrioides); assay: Binding affinity to recombinant Caulobacter vibrioides cell cycle histidine kinase CckA delta 3 mutant DHp domain (190 to 562 residues) expressed in Escherichia coli assessed as change in metlting temperature at 30 uM after 2 mins by SYPRO orange dye based DSF assay
Bacillus subtilis = assay: Antibacterial activity against Bacillus subtilis YB886 after 24 hrs by broth dilution method; format: functional; conditions: YB886, 24 h
[7] = target: T4, Virulence sensor histidine kinase PhoQ (Salmonella typhimurium (strain LT2 / SGSC1412 / ATCC 700720), UniProt P0DM80); assay: Inhibition of recombinant Salmonella typhimurium N-terminal His6-SUMO-tagged DHp-catalytic domain PhoQ (257 to 487 residues) autophosphorylation expressed in Escherichia coli BL21 (DE3) preincubated for 10 mins followed by [gamma-32P]-ATP addition after 30 mins by phosphotransferase dot blot assay; set-up: species or system Salmonella enterica subsp. enterica serovar Typhimurium
T4 sequence (P0DM80 whole entry): T3 sequence (whole entry)

[8] = target: T3, Virulence sensor histidine kinase PhoQ (Salmonella typhimurium (strain LT2 / SGSC1412 / ATCC 700720)); assay: Inhibition of recombinant Salmonella typhimurium N-terminal His6-SUMO-tagged DHp-catalytic domain PhoQ (257 to 487 residues) autophosphorylation expressed in Escherichia coli BL21 (DE3) at 800 uM preincubated for 10 mins followed by [gamma-32P]-ATP addition after 30 mins by phosphotransferase dot blot assay relative to control; set-up: scale not given: the % may be the effect or the level left; conditions: Salmonella enterica subsp. enterica serovar Typhimurium
[9] = target: T3, Virulence sensor histidine kinase PhoQ (Salmonella typhimurium (strain LT2 / SGSC1412 / ATCC 700720)); assay: Inhibition of recombinant Salmonella typhimurium N-terminal His6-SUMO-tagged PhoQ (257 to 487 residues) expressed in Escherichia coli BL21 (DE3) assessed as enzyme aggregation at 400 uM after 30 mins by native-PAGE analysis; conditions: Salmonella enterica subsp. enterica serovar Typhimurium

Compound	hemolysis at 0.5 h, 500 µM [1] [%]	IC50 [2] [µM]	Activity [3] [%]	inhibition [4] [%]	MIC (Escherichia coli) [µM]	Activity [5] [%]	MIC (Caulobacter vibrioides) [µM]	ΔTm [6] [°C]	MIC (Bacillus subtilis) [µM]	IC50 [7] [µM]	Activity [8] [%]	inhibition [9]
Oc1cc(O)c(-c2n[nH]cc2-c2ccc3c(c2)OCCO3)cc1Cl	1	32.3 to 44	–	–	–	–	–	–	–	–	–	–
CC(C)NCCCn1c(Sc2cc3c(cc2I)OCO3)nc2c(N)ncnc21 [PU-H71]	1	–	122	61	75 to 225 (≈ 38.4 to 115 µg/mL)	103	> 300	0.5	> 300	–	–	–
COc1ccc(-c2c[nH]nc2-c2cc(Cl)c(O)cc2O)cc1	0	32.7	112	–	37.5 (≈ 11.9 µg/mL)	62	225 (≈ 71.3 µg/mL)	4.2	150 (≈ 47.5 µg/mL)	–	–	–
CCc1cc(-c2n[nH]c(C)c2-c2ccc(OC)cc2)c(O)cc1O	15	18.6	118	–	75 (≈ 24.3 µg/mL)	36	225 (≈ 73 µg/mL)	4.1	112 (≈ 36.5 µg/mL)	–	–	–
Oc1cc(O)c(-c2n[nH]cc2-c2ccccc2)cc1Cl	0	33.6	92	–	37.5 (≈ 10.8 µg/mL)	63	150 to 225 (≈ 43 to 64.5 µg/mL)	3.5	225 (≈ 64.5 µg/mL)	–	–	–
CCc1cc(-c2n[nH]c(C)c2-c2ccc3c(c2)OCCO3)c(O)cc1O	14	28 to 30	–	–	–	–	–	–	–	261	–	–
CCNC(=O)c1noc(-c2cc(C(C)C)c(O)cc2O)c1-c1ccc(CN2CCOCC2)cc1 [LUMINESPIB]	1	7.3 to 28	109	–	37.5 to 75 (≈ 17.5 to 34.9 µg/mL)	73	> 300	1.8	> 300	–	56	inactive
Nc1ncnc2c1ncn2[C@@H]1O[C@H](COP(=O)(O)OP(=O)(O)NP(=O)(O)O)[C@@H](O)[C@H]1O	–	–	–	–	–	–	–	3.5	–	–	–	–
CN(C)c1cc2c(cc1Sc1nc3c(N)nccc3n1CCNCC(C)(C)C)OCO2 [CUDC-305]	3	–	96	79	4.7 to 75 (≈ 2.08 to 33.2 µg/mL)	110	> 300	0.4	> 300	–	–	–
COc1c(C)cnc(Cn2cnc3c(Cl)nc(N)nc32)c1C [BIIB021]	6	–	128	87	> 300	87	> 300	0.7	> 300	–	–	–
COc1ccc(-c2c(-c3ccc(O)cc3O)n[nH]c2C)cc1	2	46	117	–	75 to 150 (≈ 22.2 to 44.4 µg/mL)	76	> 300	2.5	> 300	–	–	–
Oc1cc(O)c(-c2[nH]ncc2-c2ccc3c(c2)OCCO3)cc1Cl	–	–	117	–	37.5 to 75 (≈ 12.9 to 25.9 µg/mL)	63	150 to 225 (≈ 51.7 to 77.6 µg/mL)	3.3	112 to 225 (≈ 38.8 to 77.6 µg/mL)	–	48	inactive
COc1ccc(-c2c[nH]nc2-c2ccc(O)cc2O)cc1	3	56.9	85	–	37.5 to 112 (≈ 10.6 to 31.8 µg/mL)	87	> 300	3.5	> 300	–	–	–
Cc1[nH]nc(-c2cc(Cl)c(O)cc2O)c1-c1ccccc1	1	17.5	–	–	–	–	–	–	–	–	–	–
Cc1[nH]nc(-c2cc(Cl)c(O)cc2O)c1-c1ccc2c(c1)OCCO2	2	11.2 to 28	113	–	75 (≈ 26.9 µg/mL)	35	225 (≈ 80.7 µg/mL)	5.3	112 to 150 (≈ 40.4 to 53.8 µg/mL)	270	–	inactive
Cc1n[nH]c(-c2cc(Cl)c(O)cc2O)c1-c1ccccc1	–	–	115	–	37.5 to 75 (≈ 11.3 to 22.6 µg/mL)	45	225 (≈ 67.7 µg/mL)	4.5	150 (≈ 45.1 µg/mL)	–	–	–

Source: ChEMBL document CHEMBL4184156, “Repurposing Hsp90 inhibitors as antibiotics targeting histidine kinases” (Bioorg Med Chem Lett, 2017)
